Data taken from US5922689A, “Cisplatin analogs for cancer treatment” (Unitech Pharmaceuticals, Inc., priority 1997, dated 1999).

Key:
[1] = system: MCF-7 breast cancer cells; assay: Side-by-side growth assay versus cisplatin, MCF-7, Example 6; format: cell-based, human; conditions: for MCF-7 cell count: untreated 2.96 × 10^6
Procedure: (§1) Growth Assay: plate individual cells (human breast cancer cells MCF-7, and MDA-MB-231) at 10^4 cells/mL, 1-mL/well in MEM-10 (MEM+10% FBS, where FBS is fetal Bovine Serum) with 1/100 Penicillin/Strep. Add 1/100 volume of the above Test Solution (10 μL/mL) to triplicate wells. MCF-7 also requires 10 μg/mL insulin; MDA-MB-231 requires no insulin. Incubate cell cultures at 37° C. for 6 days and count the number of cells.
(§2) side-by-side comparison of cis-[Pt(NH3)2 PtCl(Guanosine)]Cl and cisplatin (performed by Biotherapies Incorporated of Ann Arbor, Mich.)
(§3) Test Solutions: Test solutions were prepared in the same manner as in Example 5, except, additional test solution was prepared employing cisplatin.
(§4) Growth Assay: The same method in Example 5 was used. However, the cells studied were normal human mammary cells and breast cancer cells, MCF-7.

[2] = system: normal human mammary cells; assay: Side-by-side growth assay versus cisplatin, normal human mammary cells, Example 6; format: cell-based; conditions: for cell count, normal human mammary cells: untreated 1.00 × 10^5; for % inhibition: normal human mammary cells
Procedure: as §1, §2, §3, §4

[3] = system: human breast cancer cells MCF-7; assay: In-vitro growth assay (cell count after 6 days), MCF-7, Example 5; format: cell-based; conditions: 37° C.; for MCF-7 cell count / % inhibition: 6 days; for MCF-7 cell count: untreated 6.70 × 10^5
Procedure: (§5) In-vitro inhibition of cancer cells by cis-[(NH3)2 PtCl(Guanosine)]Cl (performed by Biotherapies Incorporated, Ann Arbor, Mich.)
as §1

[4] = system: human breast cancer cells MDA-MB-231; assay: In-vitro growth assay (cell count after 6 days), MDA-MB-231, Example 5; format: cell-based; conditions: 37° C.; for MDA cell count / % inhibition: 6 days; for MDA cell count: untreated 4.00 × 10^5
Procedure: as §5, §1

[5] = 0.012 mg/mL (4.00 × 10^-5 mmole/mL)
[6] = cisplatin 0.025 mg/mL (8.33 × 10^-5 mmole/mL)
[7] = 0.00025 mg/mL (4.29 × 10^-7 mmole/mL)
[8] = 0.0025 mg/mL (4.29 × 10^-6 mmole/mL)
[9] = 0.025 mg/mL (4.29 × 10^-5 mmole/mL)
[10] = 0.05 mg/mL (8.57 × 10^-5 mmole/mL)
[11] = #95001 0.025 mg/mL (4.29 × 10^-5 mmole/mL)

In the case of `N.N.[Cl][Pt][Cl]` [cisplatin, cis-diamminedichloroplatinum], the MCF-7 cell count [1, 5] is reported as 5.00 × 10^3, the “% inhibition” value ([1]; MCF-7, 0.012 mg/mL (4.00 × 10^-5 mmole/mL)) is reported as 99.8% and the “% inhibition” value ([1]; MCF-7, cisplatin 0.025 mg/mL (8.33 × 10^-5 mmole/mL)) is reported as 99.9%. The MCF-7 cell count [1, 6] was 5.00 × 10^3, the “cell count, normal human mammary cells” value [2, 5] was 1.00 × 10^4 and the “cell count, normal human mammary cells” value [2, 6] was 3.30 × 10^3. For the same compound, the “% inhibition” value [2, 5] was 90.0% and the “% inhibition” value [2, 6] was 99.0%.
In the case of “cis-diamminechloroguanosineplatinum chloride [cis-[Pt(NH3)2 Cl(Guanosine)]Cl]”, the MCF-7 cell count [3, 7] is reported as 6.10 × 10^5, the MCF-7 cell count [3, 8] is reported as 5.00 × 10^4 and the MCF-7 cell count [3, 9] is reported as 1.00 × 10^4. For the same compound, the “% inhibition” value ([3]; MCF-7, 0.00025 mg/mL (4.29 × 10^-7 mmole/mL)) was 9.0%, the “% inhibition” value ([3]; MCF-7, 0.0025 mg/mL (4.29 × 10^-6 mmole/mL)) was 92.5% and the “% inhibition” value ([3]; MCF-7, 0.025 mg/mL (4.29 × 10^-5 mmole/mL)) was 98.5%. For the same compound, the “inhibition of cell growth (in words)” value ([3]; MCF-7, 6 days) was “able to inhibit the cell growth”, the MCF-7 cell count [1, 10] was 6.70 × 10^3 and the MCF-7 cell count [1, 11] was 3.30 × 10^3. The “% inhibition” value ([1]; MCF-7, 0.05 mg/mL (8.57 × 10^-5 mmole/mL)) was 99.8%, the “% inhibition” value ([1]; MCF-7, #95001 0.025 mg/mL (4.29 × 10^-5 mmole/mL)) was 97.6% and the “effectiveness in killing MCF-7 cells versus cisplatin (in words)” value ([1]; ca. 8×10-5 mmole/mL) was “as effective as cisplatin in killing MCF-7 cells”. For the same compound, the MDA cell count [4, 7] was 3.55 × 10^5, the MDA cell count [4, 8] was 5.00 × 10^4 and the MDA cell count [4, 9] was 1.00 × 10^4. For the same compound, the “% inhibition” value ([4]; MDA-MB-231, 0.00025 mg/mL (4.29 × 10^-7 mmole/mL)) was 11.3%, the “% inhibition” value ([4]; MDA-MB-231, 0.0025 mg/mL (4.29 × 10^-6 mmole/mL)) was 87.5% and the “% inhibition” value ([4]; MDA-MB-231, 0.025 mg/mL (4.29 × 10^-5 mmole/mL)) was 97.5%. The “inhibition of cell growth (in words)” value ([4]; MDA-MB-231, 6 days) was “able to inhibit the cell growth”, the “cell count, normal human mammary cells” value [2, 10] was 4.50 × 10^4 and the “cell count, normal human mammary cells” value [2, 11] was 9.30 × 10^4. The “toxicity to normal human mammary cells versus cisplatin (in words)” value ([2]; ca. 8×10-5 mmole/mL) was “lower than cisplatin”, the “% inhibition” value [2, 10] was 55.0% and the “% inhibition” value [2, 11] was 7.0%.
